Test results published in PMC8000592, “Discovery and Optimization of Selective Inhibitors of Meprin α (Part I)” (Pharmaceuticals, 2021).
Like-named read-outs stand apart in the source and are kept apart here. Values belong to the compound of their own block, whether it stands above or below them.

Experiments:
meprin α = molecular target: T1, meprin α (Homo sapiens, UniProt Q16819); assay: Meprin α assay, fluorogenic substrate (Mca)-YVADAPK-(K-ε-Dnp), 384 and 1536 well plate formats; format: biochemical; conditions: for selectivity for meprin α: versus meprin β, in words
T1 sequence (Q16819 66-593 limits assumed): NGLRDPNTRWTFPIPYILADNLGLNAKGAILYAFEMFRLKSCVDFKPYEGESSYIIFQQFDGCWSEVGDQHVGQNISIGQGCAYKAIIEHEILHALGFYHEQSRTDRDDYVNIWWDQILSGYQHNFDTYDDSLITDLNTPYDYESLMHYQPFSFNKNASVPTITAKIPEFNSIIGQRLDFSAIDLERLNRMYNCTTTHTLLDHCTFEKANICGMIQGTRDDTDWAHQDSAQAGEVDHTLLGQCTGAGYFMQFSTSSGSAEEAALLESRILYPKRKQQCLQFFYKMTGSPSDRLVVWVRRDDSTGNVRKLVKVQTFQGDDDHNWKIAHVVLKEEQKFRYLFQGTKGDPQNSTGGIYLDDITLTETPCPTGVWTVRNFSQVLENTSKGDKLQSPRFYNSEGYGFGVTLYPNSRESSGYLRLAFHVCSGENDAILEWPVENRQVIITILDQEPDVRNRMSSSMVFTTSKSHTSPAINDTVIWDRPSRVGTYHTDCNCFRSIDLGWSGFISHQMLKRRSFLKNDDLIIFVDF
Excerpt: (§1) The meprin α and meprin β assays, which utilize the substrates (Mca)-YVADAPK-(K-ε-Dnp) and (Mca)-EDEDED-(K-ε-Dnp), respectively, have been described previously. To enable an ultra-high-throughput screening (uHTS) campaign, we proceeded to miniaturize both assays to 1536 well plate format (wpf). First, we recapitulated the assays in 1536 well plate using reagents at the same concentrations as in 384 well plate format assays by scaling the volume down by the factor of 2.5.
(§2) Both assays followed the same general protocol. A 5 µL measure of 2 × enzyme solution (2.6 and 0.1 nM for meprin α and meprin β, respectively) in assay buffer (50 mM Hepes, 0.01% Brij-35, pH 7.5) was added to solid bottom black 384 low volume plates (Nunc, cat# 264705). Next, 75 nL of test compounds or pharmacological control (actinonin or NFF449) were added to corresponding wells using a 384-pin tool device (V&P Scientific, San Diego, CA, USA). After 30 min incubation at RT, the reactions were started by addition of 5 µL of 2 × solutions of substrates (20 µM, mepin α substrate Mca-YVADAPK-K(Dnp) or meprin β substrate Mca-EDEDED-K(Dnp)). Reactions were incubated at RT for 1 h, after which the fluorescence was measured using the Synergy H4 multimode microplate reader (Biotek Instruments) (λexcitation = 324 nm, λemission = 390 nm).
(§3) Both assays followed the same general protocol. A 2 µL portion of 2 × enzyme solution (1.3 and 0.0125 nM for meprin α and meprin β, respectively) in assay buffer (50 mM Hepes, 0.01% Brij-35, pH 7.5) was added to solid bottom black 1536 low volume plates (Corning cat# 7261). Next, 30 nL of test compounds or pharmacological control (actinonin or NFF449) was added to corresponding wells using a 1536 pin tool device (V&P Scientific, San Diego). After 30 min incubation at RT, the reactions were started by addition of 2 µL of 2x solutions of substrates (20 µM, meprin α substrate Mca-YVADAPK-K(Dnp) or meprin β substrate Mca-EDEDED-K(Dnp)). Reactions were incubated at RT for 1 h, after which the fluorescence was measured using the Viewlux multimode microplate reader (Perkin Elmer) (λexcitation = 324 nm, λemission = 390 nm).
(§4) The miniaturized 1536-well plate format meprin α and meprin β assays were used to screen a collection of approximately 650,000 compounds (The Scripps Research library, La Jolla, CA, USA) on the automated Kalypsys/GNF platform at The Scripps Research Molecular Screening Center (SRMSC, Jupiter, FL, USA: http://hts.florida.scripps.edu/). Both uHTS campaigns were run separately but in a similar manner. Briefly, the first step was the primary screen of all test compounds as singlicates against the meprin α and meprin β target at a final concentration of 7.0 μM. Next, compounds selected as primary hits were cherry-picked and retested in triplicate against the primary screen target and its antitarget (meprin α for the meprin β screening effort, and vice versa) at a same final concentration of 7.0 μM. The additional counter screen assays against related metzincins (MMP-8, MMP-14, and ADAM10) were performed in triplicate at a final concentration of 7.0 μM. The final step was the titration of selected hits as 10-point, 1:3 serial dilutions in both the target and antitarget assay, starting at a final nominal concentration of 17 μM. […] Wells treated with DMSO only were used as negative controls and 0% inhibition reference. […] All data generated during this effort were uploaded to the SRMSC’s institutional screening database (Assay Explorer, Symyx). Sample to background (S/B) ratios, as well as Z and Z’ values, were calculated on a per plate basis as described 14. Curve fitting and resulting IC50 determinations were performed as previously reported.

meprin β = molecular target: T2, meprin β (Homo sapiens, UniProt Q16820); assay: Meprin β assay, fluorogenic substrate (Mca)-EDEDED-(K-ε-Dnp), 384 and 1536 well plate formats; format: biochemical
T2 sequence (Q16820 62-594 limits assumed): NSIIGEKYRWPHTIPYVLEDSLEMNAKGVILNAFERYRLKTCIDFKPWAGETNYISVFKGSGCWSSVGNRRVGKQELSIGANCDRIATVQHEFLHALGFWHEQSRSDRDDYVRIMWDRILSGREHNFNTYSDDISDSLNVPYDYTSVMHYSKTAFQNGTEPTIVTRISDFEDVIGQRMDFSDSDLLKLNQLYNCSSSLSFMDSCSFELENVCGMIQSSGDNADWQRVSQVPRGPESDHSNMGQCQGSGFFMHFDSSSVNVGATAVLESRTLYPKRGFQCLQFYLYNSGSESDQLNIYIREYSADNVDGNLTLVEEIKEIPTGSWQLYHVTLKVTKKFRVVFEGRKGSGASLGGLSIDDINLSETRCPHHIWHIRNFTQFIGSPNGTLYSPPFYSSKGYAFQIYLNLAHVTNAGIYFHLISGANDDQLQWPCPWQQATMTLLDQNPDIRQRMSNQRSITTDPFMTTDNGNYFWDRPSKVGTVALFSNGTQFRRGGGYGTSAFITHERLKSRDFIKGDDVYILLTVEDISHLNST
Excerpt: as §1, §2, §3, §4

[1] = triplicate, 10-point, 3:1 serial dilution, highest concentration 17.4 µM, read-out: Meprin α IC50
[2] = triplicate, 10-point, 3:1 serial dilution, highest concentration 17.4 µM, read-out: Meprin β IC50

Structure (SMILES): O=C(CCN(Cc1cccs1)S(=O)(=O)c1ccc([N+](=O)[O-])cc1)NO [Compound 162799]
selectivity against meprin β and other tested metzincins (meprin α): > 30 fold | Meprin α IC50 (meprin α; triplicate, 10-point, 3:1 serial dilution, highest concentration 17.4 µM): sub-micromolar | IC50 (meprin α; [1]): 564 nM | selectivity for meprin α (meprin α): show selectivity for meprin α | IC50 (meprin β; [2]): > 17000 nM

Structure (SMILES): O=C(COc1ccc(Cl)cc1Cl)NO [Compound 1596857]
IC50 (meprin α): 1180 nM | IC50 (meprin β): > 17000 nM

Structure (SMILES): CSc1nnc2c(n1)OC(c1ccc([N+](=O)[O-])o1)Nc1ccccc1-2 (stereo not shown) [SR412882]
IC50 (meprin α; [1]): > 17000 nM | IC50 (meprin β; [2]): 3500 nM

Structure (SMILES): O=C(CSc1nnc(NC(=O)c2ccccc2)s1)NO [Compound 19847]
IC50 (meprin α; [1]): 892 nM | IC50 (meprin β; [2]): 1430 nM

IC50 (meprin α; Meprin α 384 wpf, read-out: IC50): > 100000 nM | IC50 (meprin α; Meprin α 1536 wpf, read-out: IC50): > 100000 nM | increased apparent potency (meprin β; 2.5 µM substrate condition): 3 fold | IC50 (meprin β; 1536 wpf, 0.0125 nM enzyme, substrate 2.5uM, time 30 min, read-out: NF449 IC50): 10 nM | IC50 (meprin β; 1536 wpf, 0.0125 nM enzyme, substrate 2.5uM, time 60 min, read-out: NF449 IC50): 11 nM | IC50 (meprin β; 1536 wpf, 0.0125 nM enzyme, substrate 5uM, time 30 min, read-out: NF449 IC50): 17 nM | IC50 (meprin β; 1536 wpf, 0.0125 nM enzyme, substrate 5uM, time 60 min, read-out: NF449 IC50): 20 nM | IC50 (meprin β; 1536 wpf, 0.0125 nM enzyme, substrate 5uM, time 90 min, read-out: NF449 IC50): 22 nM | IC50 (meprin β; 1536 wpf, 0.0125 nM enzyme, substrate 10uM, time 30 min, read-out: NF449 IC50): 34 nM | IC50 (meprin β; 1536 wpf, 0.0125 nM enzyme, substrate 10uM, time 60 min, read-out: NF449 IC50): 32 nM | IC50 (meprin β; 1536 wpf, 0.0125 nM enzyme, substrate 10uM, time 90 min, read-out: NF449 IC50): 34 nM | IC50 (meprin β; 1536 wpf, enzyme 0.0125nM, time 30 min, read-out: NF449 IC50): 25.2 nM | IC50 (meprin β; 1536 wpf, enzyme 0.0125nM, time 60 min, read-out: NF449 IC50): 30.4 nM | IC50 (meprin β; 1536 wpf, enzyme 0.0125nM, time 90 min, read-out: NF449 IC50): 33.9 nM | IC50 (meprin β; 1536 wpf, enzyme 0.025nM, time 30 min, read-out: NF449 IC50): 31 nM | IC50 (meprin β; 1536 wpf, enzyme 0.025nM, time 60 min, read-out: NF449 IC50): 36.2 nM | IC50 (meprin β; 1536 wpf, enzyme 0.025nM, time 90 min, read-out: NF449 IC50): 39.2 nM | IC50 (meprin β; 1536 wpf, enzyme 0.05nM, time 30 min, read-out: NF449 IC50): 29.6 nM | IC50 (meprin β; 1536 wpf, enzyme 0.05nM, time 60 min, read-out: NF449 IC50): 34.6 nM | IC50 (meprin β; 1536 wpf, enzyme 0.05nM, time 90 min, read-out: NF449 IC50): 39.4 nM | IC50 (meprin β; Meprin β 384 wpf, read-out: IC50): 53 nM | IC50 (meprin β; Meprin β 1536 wpf, read-out: IC50): 48 nM | IC50 (meprin β; control compound in primary HTS campaign, n = 11 plates, read-out: IC50): 10.4 ± 0.85 nM
Structure (SMILES): O=C(Nc1cc(C(=O)Nc2ccc(S(=O)(=O)O)cc2S(=O)(=O)O)cc(C(=O)Nc2ccc(S(=O)(=O)O)cc2S(=O)(=O)O)c1)Nc1cc(C(=O)Nc2ccc(S(=O)(=O)O)cc2S(=O)(=O)O)cc(C(=O)Nc2ccc(S(=O)(=O)O)cc2S(=O)(=O)O)c1 [NFF449]

Structure (SMILES): O=C(CCN(Cc1ccccc1)S(=O)(=O)c1ccc(F)cc1)NO [Compound 162808]
selectivity against meprin β and other tested metzincins (meprin α): > 30 fold | Selectivity Fold (meprin α; meprin α versus meprin β): 38 fold | IC50 (meprin α; [1]): 446 nM | selectivity for meprin α (meprin α): show selectivity for meprin α | IC50 (meprin β; [2]): > 17000 nM

Structure (SMILES): O=[N+]([O-])c1ccc(CN2CCC3(CCc4ccccc43)CC2)o1 [SR207820]
IC50 (meprin α; [1]): > 17000 nM | IC50 (meprin β; [2]): 1500 nM

Structure (SMILES): O=C(c1ccc(C(=O)O)c([N+](=O)[O-])c1)c1ccc(C(=O)O)c([N+](=O)[O-])c1 [SR355996]
IC50 (meprin α; [1]): > 17000 nM | IC50 (meprin β; [2]): 970 nM

Structure (SMILES): COc1ccc(-n2c(CSc3ncccn3)nnc2SCC(=O)NO)cc1 [Compound 19855]
selectivity for meprin α (meprin α): show selectivity for meprin α | IC50 (meprin β; [2]): > 17000 nM

Structure (SMILES): COc1cc(OC)cc(C(=O)CNc2nnc(SCC(=O)NO)s2)c1 [Compound 19849]
IC50 (meprin α; [1]): 218 nM | IC50 (meprin β; [2]): 287 nM

Structure (SMILES): O=C(CSc1nnc(NC(=O)COc2ccccc2)s1)NO [Compound 19848]
IC50 (meprin α; [1]): 335 nM | IC50 (meprin β; [2]): 385 nM
